The values below come from patent US20250326771A1, “PIPERAZINE DERIVATIVES USEFUL IN HIV THERAPY” (VIIV HEALTHCARE COMPANY, priority 2022, published 2025).

Where two headings read alike, the source gives them in different places.

In assay [1] the test system is cell-associated HIV RNA. As to conditions: primary cells / resting CD4+ T cells; cited from earlier work.
In assay [2] the test system is p100/p52. As to conditions: cited from earlier work.
Assay [3] concerns Jurkat HIV-luciferase clones. As to conditions: HIV latency reversal studies; cited from earlier work.
Assay [4] relates to Jurkat HIV-luciferase clones. The experiment in a line: Jurkat latency reversal assay. It is filed as cell-based. As to conditions: Homo sapiens, 48 h; Jurkat latency reversal assay potency; read-out: Jurkat pEC50 (converted). A digest of the protocol: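 EC50 and maximal activation versus vehicle were derived by four-parameter logistic regression of luciferase luminescence. The luminescence was induced in pooled Jurkat HIV-luciferase clones C16, 115 and N6 (5,000 cells/well) after 48 h at 37° C with duplicate 14-point, 3-fold dilutions starting at 10 μM (0.5% DMSO).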

For assay [5], the target named is cIAP2-BIR2 (Homo sapiens (Human), UniProt Q13489). The experiment in a line: BIR binding assay (FRET competition), cIAP2 BIR2. Put shortly:
(§1)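 His-tagged domains (50 nM cIAP1-BIR3, 325 nM cIAP2-BIR2, 325 nM cIAP1-BIR2, 100 nM XIAP-BIR3) compete with compounds for a 200 nM AlexaFluor647-labelled SMAC/DIABLO peptide in HEPES buffer, pH 7.4, for 60 min. Then 2 nM Eu-W1024 is added for 30 min. The 615/665 nm ratio is fit by four-parameter fit to give IC50.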

For assay [6], the target named is cIAP1-BIR2 (Homo sapiens (Human), UniProt Q13490). In words: BIR binding assay (FRET competition), cIAP1 BIR2. A digest of the protocol: as §1
Chain of cIAP1-BIR2 (Q13490 173-257): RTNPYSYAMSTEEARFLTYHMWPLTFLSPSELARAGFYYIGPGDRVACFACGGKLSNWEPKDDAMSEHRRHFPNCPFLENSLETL
Assay [7] concerns the target cIAP1-BIR3 (Homo sapiens (Human), UniProt Q13490). The experiment in a line: BIR binding assay (FRET competition), cIAP1 BIR3. To be noted: for cIAP1 BIR3 vs BIR2 separation window: fold separation (FS) for cIAP1. Put shortly: as §1
The target of assay [8] is XIAP-BIR2 (Homo sapiens (Human), UniProt P98170). The experiment in a line: BIR binding assay (FRET competition), XIAP BIR2. To be noted: read-out: XIAP BIR2 (pIC50) (converted). Put shortly: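 Compounds in a 15-point, 3-fold series competed with an AlexaFluor647 SMAC peptide (AVPIAQKSE, 200 nM) for 200 nM His-tagged XIAP-BIR2 over 60 min in pH 7.4 HEPES/CHAPS/DTT buffer. Eu-W1024 (2 nM) was then added for 30 min. IC50 and pIC50 were derived from the 615 nm/665 nm emission ratio by variable-slope fit.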
Chain of XIAP-BIR2 (P98170 124-240): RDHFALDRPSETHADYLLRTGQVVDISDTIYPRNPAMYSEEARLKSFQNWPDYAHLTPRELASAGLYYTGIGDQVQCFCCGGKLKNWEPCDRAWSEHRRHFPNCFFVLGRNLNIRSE

Assay [9] addresses XIAP-BIR3 (Homo sapiens (Human), UniProt P98170). In words: BIR binding assay (FRET competition), XIAP BIR3. To be noted: for XIAP BIR3 vs BIR2 separation window: fold separation (FS) for XIAP. A digest of the protocol:
as §1

For assay [10], the target named is cIAP2-BIR3 (Homo sapiens (Human), UniProt Q13489). In words: BIR binding assay (FRET competition), cIAP2 BIR3. As to conditions: for cIAP2 BIR3 vs BIR2 separation window: fold separation (FS) for cIAP2.
Chain of cIAP2-BIR3 (Q13489 238-349): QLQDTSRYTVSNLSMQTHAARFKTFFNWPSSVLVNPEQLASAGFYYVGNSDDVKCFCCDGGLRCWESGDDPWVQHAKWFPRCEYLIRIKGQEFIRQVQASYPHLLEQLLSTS

Chain of cIAP2-BIR2 (Q13489 158-242): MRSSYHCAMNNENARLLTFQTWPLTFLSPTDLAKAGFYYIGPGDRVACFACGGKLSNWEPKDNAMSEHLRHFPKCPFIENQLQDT
Chain of cIAP1-BIR3 (Q13490 253-363): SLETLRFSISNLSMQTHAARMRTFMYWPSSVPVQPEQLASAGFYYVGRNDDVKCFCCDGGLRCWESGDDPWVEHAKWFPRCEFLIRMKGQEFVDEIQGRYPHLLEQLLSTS
Chain of XIAP-BIR3 (P98170 241-356): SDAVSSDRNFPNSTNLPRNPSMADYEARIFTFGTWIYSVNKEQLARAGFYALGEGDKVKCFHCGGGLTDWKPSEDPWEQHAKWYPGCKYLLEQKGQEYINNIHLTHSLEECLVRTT

In the case of `CC[C@H](NC(=O)[C@H](C)NC)C(=O)N1C[C@@H](O)C[C@H]1Cc1c(-c2[nH]c3cc(F)ccc3c2C[C@@H]2C[C@H](O)CN2C(=O)[C@H](CC)NC(=O)[C@H](C)NC)[nH]c2cc(F)ccc12` [Birinapant TL32711, Birinapant], the “HIV caRNA induction” value in assay [1] is “not potent”. Also, the p100-p52 conversion entry in assay [2] is on record as “not potent”. Also, the “potency in Jurkat” value in [3] is recorded as “not potent”.
Consider `CN[C@@H](C)C(=O)N[C@H](C(=O)N1CCC[C@H]1C(=O)N[C@H]1c2ccccc2C[C@H]1OCC#CC#CCO[C@@H]1Cc2ccccc2[C@@H]1NC(=O)[C@@H]1CCCN1C(=O)[C@@H](NC(=O)[C@H](C)NC)C1CCCCC1)C1CCCCC1` [AZD5582], for which the “HIV caRNA induction” value in [1] is “increase in cell-associated HIV RNA expression”.
`C[C@@H]1CN(CC(=O)N2CC(C)(C)c3[nH]c(=O)c(Cc4ccc(F)cc4)cc32)[C@@H](CN2CCO[C@@H](C(=O)NCc3ccc(CNC(=O)[C@H]4CN(C[C@H]5CN[C@H](C)CN5CC(=O)N5CC(C)(C)c6[nH]c(=O)c(Cc7ccc(F)cc7)cc65)CCO4)cc3)C2)CN1` [Example 111, (2R,2′R)-N,N′-(1,4-phenylenebis(methylene))bis(4-(((2R,5R)-1-(2-(6-(4-fluorobenzyl)-3,3-dimethyl-5-oxo-2,3,4,5-tetrahydro-1H-pyrrolo[3,2-b]pyridin-1-yl)-2-oxoethyl)-5-methylpiperazin-2-yl)methyl)morpholine-2-carboxamide)]: in assay [4], the EC50 is 12.6 to 63.1 nM. Moreover, the IC50 in assay [5] was 3.16 to 10 µM; in assay [6], 3.16 to 10 µM; in [7], 7.94 to 15.8 nM; in [8] (FRET competition binding) it was 10 to 51.3 µM; in assay [9] it was 31.6 to 501 nM; in assay [10], 7.94 to 15.8 nM. Besides, the “cIAP1 BIR3 vs BIR2 separation window” value in assay [7] is “+++ (10,000>FS>1,000)”. Also, the “XIAP BIR3 vs BIR2 separation window” value in assay [9] is listed as “+++ (10,000>FS>1,000)”. Besides, the “cIAP2 BIR3 vs BIR2 separation window” value in [10] is “+++ (10,000>FS>1,000)”.
As for `C[C@@H]1CN(CC(=O)N2CC(C)(C)c3[nH]c(=O)c(Cc4ccc(F)cc4F)cc32)[C@@H](CN2CCO[C@H](C(=O)NCc3ccc(CNC(=O)[C@@H]4CN(C[C@H]5CN[C@H](C)CN5CC(=O)N5CC(C)(C)c6[nH]c(=O)c(Cc7ccc(F)cc7F)cc65)CCO4)cc3)C2)CN1` [Compound 177, (2S,2′S)-N,N′-(1,4-phenylenebis(methylene)) bis(4-(((2R,5R)-1-(2-(6-(2,4-difluorobenzyl)-3,3-dimethyl-5-oxo-2,3,4,5-tetrahydro-1H-pyrrolo[3,2-b]pyridin-1-yl)-2-oxoethyl)-5-methylpiperazin-2-yl)methyl)morpholine-2-carboxamide)], the EC50 in assay [4] was 0.49 to 12.6 nM. Further, the IC50 in assay [5] is 1 to 3.16 µM; in [6] it was 1 to 3.16 µM; in [7], 15.8 to 31.6 nM; in assay [8] (FRET competition), 10 to 51.3 µM; in assay [9] it was 31.6 to 501 nM; in assay [10], 7.94 to 15.8 nM. For the same compound, the “cIAP1 BIR3 vs BIR2 separation window” value in assay [7] is recorded as “+++ (10,000>FS>1,000)”. For the same compound, the “XIAP BIR3 vs BIR2 separation window” value in [9] is listed as “++++ (FS>10,000)”. Moreover, the “cIAP2 BIR3 vs BIR2 separation window” value in assay [10] was “+++ (10,000>FS>1,000)”.
`C[C@@H]1CN(CC(=O)N2CC(C)(C)c3[nH]c(=O)c(Cc4ccc(F)cc4F)cc32)[C@@H](CN2CCO[C@H](COc3cccc(OC[C@@H]4CN(C[C@H]5CN[C@H](C)CN5CC(=O)N5CC(C)(C)c6[nH]c(=O)c(Cc7ccc(F)cc7F)cc65)CCO4)c3)C2)CN1` [Compound 190]: the EC50 in assay [4] was 0.49 to 12.6 nM. Also, the IC50 in assay [5] was 3.16 to 10 µM; in [6], 3.16 to 10 µM; in assay [7] it was 15.8 to 31.6 nM; in assay [8] (FRET competition), 10 to 51.3 µM; in assay [9], 15.8 to 31.6 nM; in [10] it was 15.8 to 31.6 nM. The “cIAP1 BIR3 vs BIR2 separation window” value in assay [7] was “+++ (10,000>FS>1,000)”. Moreover, the “XIAP BIR3 vs BIR2 separation window” value in assay [9] was “++++ (FS>10,000)”. Besides, the “cIAP2 BIR3 vs BIR2 separation window” value in assay [10] is given as “+++ (10,000>FS>1,000)”.
Turning to `C[C@@H]1CN(CC(=O)N2CC(C)(C)c3[nH]c(=O)c(Cc4ccc(F)cc4)cc32)[C@@H](CN2CCO[C@H](COc3cccc(OC[C@@H]4CN(C[C@H]5CN[C@H](C)CN5CC(=O)N5CC(C)(C)c6[nH]c(=O)c(Cc7ccc(F)cc7)cc65)CCO4)c3Cl)C2)CN1` [Example 88, 1,1′-(2,2′-((3R,3′R,6R,6′R)-(((2S,2'S)-(((2-chloro-1,3-phenylene)bis(oxy))bis(methylene))bis(morpholine-2,4-diyl))bis(methylene))bis(3-methylpiperazine-6,1-diyl))bis(acetyl))bis(6-(4-fluorobenzyl)-3,3-dimethyl-1,2,3,4-tetrahydro-5H-pyrrolo[3,2-b]pyridin-5-one)], in assay [4], the EC50 is 0.49 to 12.6 nM. Moreover, the IC50 in [5] was 1 to 3.16 µM; in assay [6] it was 1 to 3.16 µM; in assay [7] it was 7.94 to 15.8 nM; in [8] (FRET competition binding), 10 to 51.3 µM; in assay [9], 7.94 to 15.8 nM; in [10], 7.94 to 15.8 nM. In addition, the “cIAP1 BIR3 vs BIR2 separation window” value in assay [7] was “+++ (10,000>FS>1,000)”. Further, the “XIAP BIR3 vs BIR2 separation window” value in [9] was “++++ (FS>10,000)”. For the same compound, in assay [10], the “cIAP2 BIR3 vs BIR2 separation window” value was “+++ (10,000>FS>1,000)”.
